# Results published in ChEMBL document CHEMBL3217712, “Improved biodistribution, pharmacokinetics and photodynamic efficacy using a new photostable sulfonamide bacteriochlorin” (Medchemcomm, 2012).
# Activity calls are given as the source filed them. The calls are words filed in the database; no cut-off is given here.
# Key:
# Nucleic Acid [1] = test: Ratio of drug level in tumor to skin in mouse Cloudman S91 tumor bearing DBA2 mouse at 10 mg/kg, ip; type: ADME, organism-based; design: dose 10 mg/kg, route intraperitoneal; conditions: in vivo
# Nucleic Acid [2] = test: Ratio of drug level in tumor to muscle in mouse Cloudman S91 tumor bearing DBA2 mouse at 10 mg/kg, ip; type: ADME, organism-based; design: dose 10 mg/kg, route intraperitoneal; conditions: in vivo
# Nucleic Acid [3] = test: Ratio of drug level in tumor to skin in ip dosed human HT29 tumor bearing mouse; type: ADME, organism-based; conditions: in vivo
# Nucleic Acid [4] = test: Ratio of drug level in tumor to muscle in ip dosed human HT29 tumor bearing mouse; type: ADME, organism-based; conditions: in vivo
# [5] = n-Octanol-water partition coefficient, log P of the compound; type: physicochemical
# S91 [6] = test: Photodynamic efficacy against mouse Cloudman S91 cells allografted in DBA2 mouse assessed as disappearance of tumor at 10 mg/kg, ip followed by irradiated with 96 J cm'-2 laser light for 20 mins; type: functional, organism-based; design: dose 10 mg/kg
# S91 [7] = test: Photodynamic efficacy against mouse Cloudman S91 cells allografted in DBA2 mouse assessed as hyperaemia, oedema and progressive darkening of tumor at 10 mg/kg, ip followed by irradiated with 96 J cm'-2 laser light for 20 mins; type: functional, organism-based; design: dose 10 mg/kg
# S91 [8] = test: Photodynamic efficacy against mouse Cloudman S91 cells allografted in DBA2 mouse assessed as necrotic scab formation in tumor at 10 mg/kg, ip followed by irradiated with 96 J cm'-2 laser light for 20 mins measured after 12 hrs; type: functional, organism-based; design: dose 10 mg/kg
# S91 [9] = test: Photodynamic efficacy against mouse Cloudman S91 cells allografted in DBA2 mouse assessed as necrotic and flat tumor at 10 mg/kg, ip followed by irradiated with 96 J cm'-2 laser light for 20 mins measured after 1 to 2 days; type: functional, organism-based; design: dose 10 mg/kg
# Mus musculus = test: Toxicity in mouse Cloudman S91 cells allografted DBA2 mouse assessed as skin damage with oedema and large scab formation at 10 mg/kg, ip followed by irradiated with 96 J cm'-2 laser light for 20 mins measured after 24 hrs; type: organism-based; design: dose 10 mg/kg, route intraperitoneal; conditions: in vivo
# S91 [10] = test: Antitumor activity against mouse Cloudman S91 cells allografted in DBA2 mouse at 10 mg/kg, ip; type: functional, organism-based; design: dose 10 mg/kg
# S91 [11] = test: Photodynamic efficacy against mouse Cloudman S91 cells allografted in DBA2 mouse assessed as disappearance of tumor at 10 mg/kg, ip followed by irradiated with 96 J cm'-2 laser light for 20 mins measured after 80 days; type: functional, organism-based; design: dose 10 mg/kg
# S91 [12] = test: Photodynamic efficacy against mouse Cloudman S91 cells allografted in DBA2 mouse assessed as time of tumor growth delay at 10 mg/kg, ip followed by irradiated with 96 J cm'-2 laser light for 20 mins; type: functional; conditions: route intraperitoneal
# S91 [13] = test: Photodynamic efficacy against mouse Cloudman S91 cells allografted in DBA2 mouse assessed as tumor growth delay at 10 mg/kg, ip followed by irradiated with 96 J cm'-2 laser light for 20 mins relative to sulfonated bacteriochlorin; type: functional; conditions: route intraperitoneal
# [14] = Biodistribution in mouse Cloudman S91 tumor bearing DBA2 mouse blood at 10 mg/kg, ip after 2 hrs; type: ADME, organism-based; design: dose 10 mg/kg, route intraperitoneal; conditions: read-out: Drug uptake
# [15] = Biodistribution in mouse Cloudman S91 tumor bearing DBA2 mouse tumour at 10 mg/kg, ip after 2 hrs; type: ADME, organism-based, Neoplasm; design: dose 10 mg/kg, route intraperitoneal; conditions: read-out: Drug uptake
# [16] = Biodistribution in mouse Cloudman S91 tumor bearing DBA2 mouse skin at 10 mg/kg, ip after 2 hrs; type: ADME, organism-based, Zone of skin; design: dose 10 mg/kg, route intraperitoneal; conditions: read-out: Drug uptake
# [17] = Biodistribution in mouse Cloudman S91 tumor bearing DBA2 mouse muscle at 10 mg/kg, ip after 2 hrs; type: ADME, organism-based, Muscle tissue; design: dose 10 mg/kg, route intraperitoneal; conditions: read-out: Drug uptake
# [18] = Biodistribution in mouse Cloudman S91 tumor bearing DBA2 mouse spleen at 10 mg/kg, ip after 2 hrs; type: ADME, organism-based; design: dose 10 mg/kg, route intraperitoneal; conditions: read-out: Drug uptake
# [19] = Biodistribution in mouse Cloudman S91 tumor bearing DBA2 mouse liver at 10 mg/kg, ip after 2 hrs; type: ADME, organism-based; design: dose 10 mg/kg, route intraperitoneal; conditions: read-out: Drug uptake
# [20] = Biodistribution in mouse Cloudman S91 tumor bearing DBA2 mouse kidneys at 10 mg/kg, ip after 2 hrs; type: ADME, organism-based; design: dose 10 mg/kg, route intraperitoneal; conditions: kidney, read-out: Drug uptake
# [21] = Biodistribution in mouse Cloudman S91 tumor bearing DBA2 mouse intestine at 10 mg/kg, ip after 2 hrs; type: ADME, organism-based; design: dose 10 mg/kg, route intraperitoneal; conditions: read-out: Drug uptake
# [22] = Biodistribution in mouse Cloudman S91 tumor bearing DBA2 mouse heart at 10 mg/kg, ip after 2 hrs; type: ADME, organism-based; design: dose 10 mg/kg, route intraperitoneal; conditions: read-out: Drug uptake
# [23] = Biodistribution in mouse Cloudman S91 tumor bearing DBA2 mouse lungs at 10 mg/kg, ip after 2 hrs; type: ADME, organism-based; design: dose 10 mg/kg, route intraperitoneal; conditions: lung, read-out: Drug uptake
# [24] = Biodistribution in mouse Cloudman S91 tumor bearing DBA2 mouse blood at 10 mg/kg, ip after 6 hrs; type: ADME, organism-based; design: dose 10 mg/kg, route intraperitoneal; conditions: read-out: Drug uptake
# [25] = Biodistribution in mouse Cloudman S91 tumor bearing DBA2 mouse tumour at 10 mg/kg, ip after 6 hrs; type: ADME, organism-based, Neoplasm; design: dose 10 mg/kg, route intraperitoneal; conditions: read-out: Drug uptake
# [26] = Biodistribution in mouse Cloudman S91 tumor bearing DBA2 mouse skin at 10 mg/kg, ip after 6 hrs; type: ADME, organism-based, Zone of skin; design: dose 10 mg/kg, route intraperitoneal; conditions: read-out: Drug uptake
# [27] = Biodistribution in mouse Cloudman S91 tumor bearing DBA2 mouse muscle at 10 mg/kg, ip after 6 hrs; type: ADME, organism-based, Muscle tissue; design: dose 10 mg/kg, route intraperitoneal; conditions: read-out: Drug uptake
# [28] = Biodistribution in mouse Cloudman S91 tumor bearing DBA2 mouse spleen at 10 mg/kg, ip after 6 hrs; type: ADME, organism-based; design: dose 10 mg/kg, route intraperitoneal; conditions: read-out: Drug uptake
# [29] = Biodistribution in mouse Cloudman S91 tumor bearing DBA2 mouse liver at 10 mg/kg, ip after 6 hrs; type: ADME, organism-based; design: dose 10 mg/kg, route intraperitoneal; conditions: read-out: Drug uptake
# [30] = Biodistribution in mouse Cloudman S91 tumor bearing DBA2 mouse kidneys at 10 mg/kg, ip after 6 hrs; type: ADME, organism-based; design: dose 10 mg/kg, route intraperitoneal; conditions: kidney, read-out: Drug uptake
# [31] = Biodistribution in mouse Cloudman S91 tumor bearing DBA2 mouse intestine at 10 mg/kg, ip after 6 hrs; type: ADME, organism-based; design: dose 10 mg/kg, route intraperitoneal; conditions: read-out: Drug uptake
# [32] = Biodistribution in mouse Cloudman S91 tumor bearing DBA2 mouse heart at 10 mg/kg, ip after 6 hrs; type: ADME, organism-based; design: dose 10 mg/kg, route intraperitoneal; conditions: read-out: Drug uptake
# [33] = Biodistribution in mouse Cloudman S91 tumor bearing DBA2 mouse lungs at 10 mg/kg, ip after 6 hrs; type: ADME, organism-based; design: dose 10 mg/kg, route intraperitoneal; conditions: lung, read-out: Drug uptake
# [34] = Biodistribution in mouse Cloudman S91 tumor bearing DBA2 mouse blood at 10 mg/kg, ip after 12 hrs; type: ADME, organism-based; design: dose 10 mg/kg, route intraperitoneal; conditions: read-out: Drug uptake
# [35] = Biodistribution in mouse Cloudman S91 tumor bearing DBA2 mouse tumour at 10 mg/kg, ip after 12 hrs; type: ADME, organism-based, Neoplasm; design: dose 10 mg/kg, route intraperitoneal; conditions: read-out: Drug uptake
# [36] = Biodistribution in mouse Cloudman S91 tumor bearing DBA2 mouse skin at 10 mg/kg, ip after 12 hrs; type: ADME, organism-based, Zone of skin; design: dose 10 mg/kg, route intraperitoneal; conditions: read-out: Drug uptake
smiles,measurement,setting,value
CCNS(=O)(=O)c1ccc(Cl)c(-c2c3nc(c(-c4c(Cl)ccc(S(=O)(=O)NCC)c4Cl)c4ccc([nH]4)c(-c4c(Cl)ccc(S(=O)(=O)NCC)c4Cl)c4nc(c(-c5c(Cl)ccc(S(=O)(=O)NCC)c5Cl)c5ccc2[nH]5)CC4)CC3)c1Cl,Ratio,Nucleic Acid [1],6
same,Ratio,Nucleic Acid [2],7
same,Ratio,Nucleic Acid [3],1
same,Ratio,Nucleic Acid [4],5
same,logP,[5],1.83
same,Activity,S91 [6],Active
same,Activity,S91 [7],Active
same,Activity,S91 [8],Active
same,Activity,S91 [9],Active
same,Activity,Mus musculus,Toxic
same,Activity,S91 [10],inactive
same,Activity,S91 [11],inactive
same,Time,S91 [12],44 days
same,fold change (FC),S91 [13],1.6
same,concentration at 2 h,[14],90 ng/g
same,concentration at 2 h,[15],40 ng/g
same,concentration at 2 h,[16],50 ng/g
same,concentration at 2 h,[17],30 ng/g
same,concentration at 2 h,[18],2300 ng/g
same,concentration at 2 h,[19],980 ng/g
same,concentration at 2 h,[20],100 ng/g
same,concentration at 2 h,[21],200 ng/g
same,concentration at 2 h,[22],40 ng/g
same,concentration at 2 h,[23],200 ng/g
same,concentration at 6 h,[24],240 ng/g
same,concentration at 6 h,[25],160 ng/g
same,concentration at 6 h,[26],70 ng/g
same,concentration at 6 h,[27],50 ng/g
same,concentration at 6 h,[28],7000 ng/g
same,concentration at 6 h,[29],4800 ng/g
same,concentration at 6 h,[30],400 ng/g
same,concentration at 6 h,[31],1800 ng/g
same,concentration at 6 h,[32],100 ng/g
same,concentration at 6 h,[33],300 ng/g
same,concentration at 12 h,[34],970 ng/g
same,concentration at 12 h,[35],370 ng/g
same,concentration at 12 h,[36],180 ng/g
